Measured values as given in patent US11919872B1, “N′-(2-(5-(4-chlorophenyl)-1,3,4-oxadiazol-2-ylthio)acetoxy)benzimidamide as an antimicrobial compound” (KING FAISAL UNIVERSITY, priority 2023, dated 2024).
“And” between values parts separate entries of the source, which are not always exact repeats. Equal entries are not always repeated.

Assays:
Bacillus cereus = experiment: Agar plate disc-diffusion, antibacterial inhibition zone; type: cell-based; settings: nutrient agar, 37° C., 48 hours
Method: (§1) The agar plate disc-diffusion method was applied. Sterilized filter papers (6 mm in diameter) were wetted with 10 μL of a solution of N′-(2-(5-(4-chlorophenyl)-1,3,4-oxadiazol-2-ylthio)acetoxy)benzimidamide (3) to be tested, containing 10 mg/mL in DMSO, and the discs were allowed to air dry. The discs were then placed onto the surface of agar plates (nutrient agar for bacteria and Sabouraud's dextrose agar for fungi) seeded with the test organism. Each plate contained 15 mL of the agar medium, previously seeded with 0.2 mL of the broth culture of each organism pregrown for 18 hours. The plates were incubated at 37° C. for 48 hours and 72 hours for fungi. The inhibition zones were measured in mm. Discs impregnated with DMSO were used as a control, and their inhibition zone was subtracted from the tested compound's actual inhibition zone.

Escherichia coli = experiment: as above; type: cell-based; settings: nutrient agar, 37° C., 48 hours
Method: as §1

Pseudomonas aeruginosa = experiment: as above; type: cell-based; settings: nutrient agar, 37° C., 48 hours
Method: as §1

Staphylococcus aureus = experiment: as above; type: cell-based; settings: nutrient agar, 37° C., 48 hours
Method: as §1

Aspergillus flavus = experiment: Agar plate disc-diffusion, antifungal inhibition zone; type: cell-based; settings: Sabouraud's dextrose agar, 37° C., 72 hours
Method: as §1

[1] = test system: Chrysosporium keratinophilum; experiment: as above; type: cell-based; settings: Sabouraud's dextrose agar, 37° C., 72 hours
Method: as §1

[2] = A = concentration of comp. = 10,000 μL
[3] = B = concentration of comp. = 30,000 μL
[4] = C = concentration of comp. = 50,000 μL
[5] = A = concentration of comp. = 10,000 μg/mL

Compound	inhibition zone, Bacillus Cereus (Bacillus cereus; [2]) [mm]	inhibition zone, Bacillus Cereus (Bacillus cereus; [3]) [mm]	inhibition zone, Bacillus Cereus (Bacillus cereus; [4]) [mm]	inhibition zone, Escherichia coli (Escherichia coli; [2]) [mm]	inhibition zone, Escherichia coli (Escherichia coli; [3]) [mm]	inhibition zone, Escherichia coli (Escherichia coli; [4]) [mm]	inhibition zone, Pseudomonas aeruginosa (Pseudomonas aeruginosa; [2]) [mm]	inhibition zone, Pseudomonas aeruginosa (Pseudomonas aeruginosa; [3]) [mm]	inhibition zone, Pseudomonas aeruginosa (Pseudomonas aeruginosa; [4]) [mm]	inhibition zone, Staphylococcus aureus (Staphylococcus aureus; [2]) [mm]	inhibition zone, Staphylococcus aureus (Staphylococcus aureus; [3]) [mm]	inhibition zone, Staphylococcus aureus (Staphylococcus aureus; [4]) [mm]	inhibition zone, Aspergillus flavus (Aspergillus flavus; [5]) [mm]	inhibition zone, Aspergillus flavus (Aspergillus flavus; [3]) [mm]	inhibition zone, Aspergillus flavus (Aspergillus flavus; [4]) [mm]	inhibition zone, Chrysosporium keratinophilum [1, 5] [mm]	inhibition zone, Chrysosporium keratinophilum [1, 3] [mm]	inhibition zone, Chrysosporium keratinophilum [1, 4] [mm]	melting point
O=C(O)c1cn(C2CC2)c2cc(N3CCNCC3)c(F)cc2c1=O [Cip., ciprofloxacin, reference compound]	29	30	42	30	39	60	29	30	53	43	44	53	29	30	42	29	30	53	–
N/C(=N\OC(=O)CSc1nnc(-c2ccc(Cl)cc2)o1)c1ccccc1 [Compound 3, N′-(2-(5-(4-chlorophenyl)-1,3,4-oxadiazol-2-ylthio)acetoxy)benzimidamide]	27	29	40	22	33	46	25	29	50	38	42	52	27	29	38	24	29	50	~ 174 °C and 174 °C
